Data as given in patent publication US6965051B2, “Process for resolution of tamsulosin and compounds, compositions, and processes associated therewith” (Synthon IP Inc., priority 2001, dated 2005).

Experiments:
[1] = Solubility of solid state racemic tamsulosin free base precipitates (qualitative); format: physicochemical; settings: relatively pure precipitate
Source text: The typical starting tamsulosin substrate, namely racemic tamsulosin free base in solid state, is not formed in the prior art per se. The present invention is based in part on the discovery that the racemic free base can be formed and isolated in the solid state. Preferably the solid state form is a precipitate from a solution. More preferably, the solid state form is a crystalline form. The crystalline form includes all polymorphic modifications, unless otherwise noted and includes hydrates and solvates thereof. In particular, two polymorphic forms of solid state racemic tamsulosin free base, designated as Form 1 and Form 2, have now been discovered as part of the present invention and are described hereinafter. The solid state racemic free base can be isolated in high purity, including at least 80% purity, more preferably at least 90% purity, still more preferably at least 95% purity.

[2] = Water solubility of amine (5) observed during alkaline extraction; format: physicochemical; settings: free base, normal alkaline extraction gave too high a loss
Source text: It has now been discovered that the so obtained free base of (5) is contaminated by side-products and should be purified for the next step. […] It has been discovered that an effective way to purify the amine is to form a sulfonic acid salt of the amine, especially methane sulfonate or tosylate. The salt, particularly the methane sulfonate salt of (5), may be isolated in solid, preferably crystalline state by conventional methods and may be used as an advantageous substrate in the next reaction step. The conversion of the free base of (5) into an acid addition salt and isolation of the salt in solid state enhances the purity of the compound (5), particularly it removes side products that resulted from hydrogenation such as 2-ethoxyphenyl. The 2-(o-ethoxyphenoxy)ethylamine methane sulfonate thus forms a specific aspect of this invention.

SMILES	solubility in alcohols ([1]; alcohols such as methanol and ethanol)	solubility in chlorinated hydrocarbons ([1]; chlorinated hydrocarbons)	solubility in water ([1]; water)	water solubility [2]
CCOc1ccccc1OCCNC(C)Cc1ccc(OC)c(S(N)(=O)=O)c1 (racemic) [racemic tamsulosin free base, (R,S)-5-[2-[[2-(2-ethoxyphenoxy)ethyl]amino]propyl]-2-methoxybenzene-sulfonamide]	soluble	soluble	sparingly soluble	
CCOc1ccccc1OCCN [amine (5), 2-(o-ethoxyphenoxy)ethylamine]				unexpectedly high
